Each structure is given as a SMILES string. Where “and” joins values, the source holds several entries; their conditions need not be identical. Identical values can stand only once. Records with an inconclusive call do not appear. Where a SMILES comes first, the peptide text is derived from it. The star is where a group is joined. Trt = c1ccc(C(c2ccccc2)(c2ccccc2)*)cc1; Cbz = O=C(OCc1ccccc1)*; Bn = c1ccc(C*)cc1; βAla = NCCC(=O)O

This experiment relates to MX-1 breast xenograft, nude mice, tumor weight T/C. Kind of experiment: NCI In Vivo Anticancer Drug Screen. Data for tumor model Human Mammary Carcinoma MX-1 Xenograft (intrarenal inoculation) in NU/NU Swiss (nude) mice. The settings on record: endpoint: mean tumor weight change, higher = larger tumour. A digest of the protocol: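 Antitumour effect measured in vivo against vehicle controls, expressed as T/C.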
(A xenograft is tissue or cells of one species grown in another, often human tumour cells in immunodeficient mice.)

[1] abbreviates: dose: 300.0 mg/kg/injection, schedule: Q04DX003 (sc), vehicle: Klucel (hydroxypropylcellulose) (HPC).
The mark [2] stands for this setting: dose: 600.0 mg/kg/injection, schedule: Q04DX003 (sc), vehicle: Klucel (hydroxypropylcellulose) (HPC).
Setting [3] is: dose: 1200.0 mg/kg/injection, schedule: Q04DX003 (sc), vehicle: Klucel (hydroxypropylcellulose) (HPC).
The mark [4] stands for this setting: dose: 2400.0 mg/kg/injection, schedule: Q04DX003 (sc), vehicle: Klucel (hydroxypropylcellulose) (HPC).
Setting [5] is: dose: 50.0 mg/kg/injection, schedule: Q01DX010 (sc), vehicle: Klucel (hydroxypropylcellulose) (HPC).
[6] abbreviates: dose: 100.0 mg/kg/injection, schedule: Q01DX010 (sc), vehicle: Klucel (hydroxypropylcellulose) (HPC).
The mark [7] stands for this setting: dose: 75.0 mg/kg/injection, schedule: Q04DX003 (sc), vehicle: saline with Tween-80.
Setting [8] is: dose: 150.0 mg/kg/injection, schedule: Q04DX003 (sc), vehicle: saline with Tween-80.
Setting [9] is: dose: 300.0 mg/kg/injection, schedule: Q04DX003 (sc), vehicle: saline with Tween-80.
[10] abbreviates: dose: 75.0 mg/kg/injection, schedule: Q04DX003 (sc), vehicle: Klucel (hydroxypropylcellulose) (HPC).
The mark [11] stands for this setting: dose: 150.0 mg/kg/injection, schedule: Q04DX003 (sc), vehicle: Klucel (hydroxypropylcellulose) (HPC).
The mark [12] stands for this setting: dose: 600.0 mg/kg/injection, schedule: Q04DX003 (sc), vehicle: saline with Tween-80.

Consider `O=C(O)CC(=O)O.[NH-]C1CCCCC1[NH-].[Pt+2]` (stereo not given), for which the T/C runs as follows: (dose: 20.0 mg/kg/injection, schedule: Q01DX010 (sc), vehicle: dextrose) 1 % of control and -16 % of control; (dose: 40.0 mg/kg/injection, schedule: Q01DX010 (sc), vehicle: dextrose) -81 % of control and -78 % of control.
In the case of `C[CH2][Sn]([CH2]C)([O]S(C)(=O)=O)[O]S(C)(=O)=O`, the T/C is 83 % of control (dose: 6.25 mg/kg/injection, schedule: Q04DX003 (sc), vehicle: saline with Tween-80); 95 % of control (dose: 12.5 mg/kg/injection, schedule: Q04DX003 (sc), vehicle: saline with Tween-80); 95 % of control (dose: 25.0 mg/kg/injection, schedule: Q04DX003 (sc), vehicle: saline with Tween-80).
As to `Cc1cc(C)c(-c2cc(O)c(C)cc2O)c(C)c1`, the T/C is 588 % of control under setting [1], 557 % of control under setting [2], 388 % of control under setting [3] and 420 % of control under setting [4].
In the case of `C/C(=C\c1ccccc1)[N+](=O)[O-]`, the T/C (dose: 25.0 mg/kg/injection, schedule: Q01DX010 (sc), vehicle: Klucel (hydroxypropylcellulose) (HPC)) is 38 % of control; the T/C under setting [5] was 88 % of control; the T/C under setting [6] is 45 % of control and 53 % of control; the T/C (dose: 200.0 mg/kg/injection, schedule: Q01DX010 (sc), vehicle: Klucel (hydroxypropylcellulose) (HPC)) was 55 % of control and 59 % of control.
As for `Clc1cc(Cl)c(C[N+]23CN4CN(CN(C4)C2)C3)cc1Cl`, the T/C (dose: 37.5 mg/kg/injection, schedule: Q04DX003 (sc), vehicle: saline with Tween-80) was 106 % of control; the T/C under setting [7] was 120 % of control; the T/C under setting [8] is 110 % of control; the T/C under setting [9] is 169 % of control.
`COc1ccc(C(=O)/C(Br)=C/C(=O)O)cc1`: the T/C runs as follows: (dose: 12.5 mg/kg/injection, schedule: Q01DX010 (sc), vehicle: saline) 110 % of control; (dose: 25.0 mg/kg/injection, schedule: Q01DX010 (sc), vehicle: saline) 63 % of control; (dose: 50.0 mg/kg/injection, schedule: Q01DX010 (sc), vehicle: saline) 98 % of control.
In the case of `N#C[C@H](OC1OC(COC2OC(CO)C(O)C(O)C2O)C(O)C(O)C1O)c1ccccc1` (stereo not given in full), the T/C is, setting by setting: (dose: 450.0 mg/kg/injection, schedule: Q04DX003 (sc), vehicle: saline) 63 % of control; (dose: 900.0 mg/kg/injection, schedule: Q04DX003 (sc), vehicle: saline) 69 % of control; (dose: 1800.0 mg/kg/injection, schedule: Q04DX003 (sc), vehicle: saline) 70 % of control; (dose: 3600.0 mg/kg/injection, schedule: Q04DX003 (sc), vehicle: saline) 67 % of control.
Take `Cc1c2cc[n+](CCN3CCCCC3)cc2c(C)c2c1[nH]c1ccc(O)cc12`: the T/C runs as follows: (dose: 25.0 mg/kg/injection, schedule: Q04DX003 (sc), vehicle: suspension in saline) 159 % of control; (dose: 50.0 mg/kg/injection, schedule: Q04DX003 (sc), vehicle: suspension in saline) 163 % of control; (dose: 100.0 mg/kg/injection, schedule: Q04DX003 (sc), vehicle: suspension in saline) 159 % of control.
For `COC(=O)C(CSC(c1ccccc1)(c1ccccc1)c1ccccc1)NC(=O)C(CSCc1ccccc1)NC(=O)CCNC(=O)OCc1ccccc1` (stereo not given) ({Cbz-βAla}-Cys(Bn)-Cys(Trt)-OMe; configuration not given here), the T/C is 99 % of control under setting [10], 49 % of control under setting [11], 63 % of control under setting [1] and 60 % of control under setting [2].
`Oc1c(Cl)cc(C(c2cc(Cl)c(O)c(Cl)c2)C(c2cc(Cl)c(O)c(Cl)c2)c2cc(Cl)c(O)c(Cl)c2)cc1Cl`: the T/C under setting [1] was 108 % of control, the T/C under setting [2] is 79 % of control, the T/C under setting [3] was 73 % of control and the T/C under setting [4] is 88 % of control.
With `COc1ccc(C(=O)c2no[n+]([O-])c2C(=O)c2ccc(OC)cc2)cc1`, the T/C under setting [9] is 121 % of control; the T/C under setting [12] is 91 % of control; the T/C (dose: 1200.0 mg/kg/injection, schedule: Q04DX003 (sc), vehicle: saline with Tween-80) was 66 % of control; the T/C (dose: 2400.0 mg/kg/injection, schedule: Q04DX003 (sc), vehicle: saline with Tween-80) was 88 % of control.
On to `NCCCNCCSP(=O)(O)O`, for which the T/C (dose: 100.0 mg/kg/injection, schedule: Q04DX003 (sc), vehicle: saline) was 98 % of control; the T/C (dose: 200.0 mg/kg/injection, schedule: Q04DX003 (sc), vehicle: saline) was 80 % of control; the T/C (dose: 400.0 mg/kg/injection, schedule: Q04DX003 (sc), vehicle: saline) is 91 % of control.
Consider `Nc1nc(=S)c2ncn(C3CC(O)C(CO)O3)c2[nH]1` (stereo not given), for which the T/C runs as follows: (dose: 0.94 mg/kg/injection, schedule: Q04DX003 (sc), vehicle: saline with Tween-80) 97 % of control; (dose: 1.88 mg/kg/injection, schedule: Q04DX003 (sc), vehicle: saline with Tween-80) 81 % of control; (dose: 3.75 mg/kg/injection, schedule: Q04DX003 (sc), vehicle: saline with Tween-80) 97 % of control; (dose: 7.5 mg/kg/injection, schedule: Q04DX003 (sc), vehicle: saline with Tween-80) 87 % of control; under setting [5], 64 % of control; under setting [6], 122 % of control.
On to `CCCCCCCC(=O)N/N=C(\CO)[C@]1(O)Cc2c(O)c3c(c(O)c2[C@@H](OC2CC(N)C(O)C(C)O2)C1)C(=O)c1c(OC)cccc1C3=O` (stereo not given in full), for which the T/C runs as follows: (dose: 25.0 mg/kg/injection, schedule: Q01DX010 (sc), vehicle: water) 227 % of control; (dose: 50.0 mg/kg/injection, schedule: Q01DX010 (sc), vehicle: water) 230 % of control; (dose: 100.0 mg/kg/injection, schedule: Q01DX010 (sc), vehicle: water) 370 % of control.
Turning to `Brc1ccc(C[N+]23CN4CN(CN(C4)C2)C3)cc1`, the T/C under setting [7] was 84 % of control, the T/C under setting [8] was 99 % of control, the T/C under setting [9] was 89 % of control and the T/C under setting [12] is 73 % of control.
On to `CCN1/C(=C/C=C/C=C/c2sc3ccccc3[n+]2CC)Sc2ccccc21`, for which the T/C was 56 % of control (dose: 1.5 mg/kg/injection, schedule: Q04DX003 (sc), vehicle: suspension in saline); 35 % of control (dose: 3.0 mg/kg/injection, schedule: Q04DX003 (sc), vehicle: suspension in saline); 71 % of control (dose: 6.0 mg/kg/injection, schedule: Q04DX003 (sc), vehicle: suspension in saline).
`O=NN(CCCl)C(=O)NC1CCCCC1`: the T/C runs as follows: (dose: 4.0 mg/kg/injection, schedule: Q01DX010 (sc), vehicle: saline with Tween-80) 109 % of control; (dose: 8.0 mg/kg/injection, schedule: Q04DX003 (sc), vehicle: Klucel (hydroxypropylcellulose) (HPC)) 88 % of control and 92 % of control; (dose: 8.0 mg/kg/injection, schedule: Q04DX003 (sc), vehicle: carboxymethylcellulose (CMC)) 89 % of control; (dose: 12.5 mg/kg/injection, schedule: Q04DX003 (sc), vehicle: Klucel (hydroxypropylcellulose) (HPC)) 59 % of control; (dose: 16.0 mg/kg/injection, schedule: Q01DX010 (sc), vehicle: saline with Tween-80) 28 % of control; (dose: 16.0 mg/kg/injection, schedule: Q04DX003 (sc), vehicle: carboxymethylcellulose (CMC)) 85 % of control. For the same molecule, the T/C runs as follows: (dose: 25.0 mg/kg/injection, schedule: Q04DX003 (sc), vehicle: Klucel (hydroxypropylcellulose) (HPC)) 92 % of control and 213 % of control; (dose: 32.0 mg/kg/injection, schedule: Q04DX003 (sc), vehicle: carboxymethylcellulose (CMC)) 77 % of control; (dose: 64.0 mg/kg/injection, schedule: Q04DX003 (sc), vehicle: Klucel (hydroxypropylcellulose) (HPC)) -95 % of control; (dose: 64.0 mg/kg/injection, schedule: Q04DX003 (sc), vehicle: carboxymethylcellulose (CMC)) 29 % of control.
Take `COC(=O)Nc1nc2ccc(SC)cc2c(=O)[nH]1`: the T/C reads like this: under setting [11], 83 % of control; under setting [1], 116 % of control; under setting [2], 92 % of control; under setting [3], 86 % of control.
For the molecule `CN(C)c1ccc2c(N(C)C)cc(N(C)C)nc2c1`, the T/C is, setting by setting: (dose: 18.75 mg/kg/injection, schedule: Q04DX003 (sc), vehicle: Klucel (hydroxypropylcellulose) (HPC)) 78 % of control; (dose: 37.5 mg/kg/injection, schedule: Q04DX003 (sc), vehicle: Klucel (hydroxypropylcellulose) (HPC)) 84 % of control; under setting [10], 82 % of control.
